Measurements published in US20200281897A1, “INDAZOLE DERIVATIVES FOR CANCER TREATMENT” (Servicio Andaluz de Salud, priority 2016, published 2020).

Columns and labels:
[1] = tested on: granulomonocytes (CD64+) and lymphocytes (CD45+); test: Ex vivo viability of normal cell subpopulations of patient bone marrow by flow cytometry; assay type: cell-based, human
Procedure: In vitro studies were carried out using six different human MM cell lines, U266, RPMI8226, MM1S, MM1R, U266-LR7, and RPMI-LR5. For ex vivo assays, human primary cells from healthy donors and MM patients were used (Table 1). Human MM cell lines U266, RPMI8226, and MM1.S were acquired from ATCC and lines U266-LR7, RPMI-LR5, and MM1.R were kindly provided by Dr. Enrique Ocio (Hospital Universitario de Salamanca, Spain). The primary cells were obtained from bone marrow (BM) aspirates or peripheral blood (PB) samples, and the peripheral blood mononuclear cells (PBMCs) were isolated by Ficoll-Hypaque centrifugation and washed twice in phosphate buffered saline (PBS) containing 1% BSA. […]
The cell viability of the MM cell lines and primary cells from healthy PB donors was also evaluated by flow cytometry using 7-AAD/Annexin V. Patient bone marrow (BM) cells were analyzed using 7-AAD with a combination of monoclonal antibodies against myeloma-associated antigens (anti-CD56-APC, anti-CD45-Pacific Blue, and anti-CD38-APC-H7 [BD Biosciences]) and antibodies for distinguishing the granulomonocytic population (anti-CD64-FITC) and lymphocytic population (anti-CD45-Pacific Blue). The cells were acquired by means of FACSCanto II flow cytometer (BD Biosciences) and analyzed using Infinicyt™ Software (Cytognos, Spain).

[2] = tested on: hematopoietic progenitor populations; test: Effect on normal hematopoiesis in healthy BALB/c mice; assay type: in vivo; settings: 5 mg/kg/day for 7 and 28 days
Procedure: The effect of the cannabinoid on normal hematopoiesis was also tested by means of the treatment of healthy BALB/c mice with WIN-55,212-2 at a dose of 5 mg/kg/day for 7 and 28 days. The bone marrow and the peripheral blood population were analyzed by means of flow cytometry and blood counts.

U266 [3] = test: Western blot and immunofluorescence in U266 cells; assay type: cell-based, human; settings: U266, 50 μM
Procedure: The extracts for Western blot were taken after 0, 2, 6, 18, and 24 hours. The cells were lysed according to Gilbert et al., 2002. (J Immunol Methods. 2002, 271:185-201), by adding 2% ASB-14 (Calbiochem, Beeston, United Kingdom) to the isotonic lysis buffer. The protein concentration was determined by Pierce® Microplate BCA Protein Assay kit-Reducing Agent Compatible (Pierce, Rockford, Ill.). The samples were subjected to SDS/PAGE in AnykD precast gels (Bio Rad, Hercules, Calif.) and transferred to PVDF membranes using Trans-Blot® Turbo™ System (Bio-Rad). The membranes were incubated over night at 4° C. with primary antibody in 0.05% Tween 20-Tris buffered saline (TTBS) then with the suitable secondary antibody, and they were subjected to chemiluminescence detection. As a control condition, the cells were treated with DMSO (<0.15%) in RPMI 1640 medium from Gibco (Gaithersburg, Md.).
The antibodies for caspase-2, -8, -9, active caspase-3, -p-Akt (phospho T308), p-Erk (T202+Y204), -p-p38MAPK (phospho T180+Y182), -p-JNK (phospho T183+Y185), -SPT, and the CB1 and CB2 receptors were from Abcam, anti-MCL-1 and -Bcl-xL were from Santa Cruz Biotechnology, anti-PARP was from Cell Signaling Technology, anti-Bax and -Bak were from BD Biosciences. Anti-beta-tubulin was from Sigma-Aldrich. All the horseradish peroxidase (HRP)-conjugated secondary antibodies used were from Jackson ImmunoResearch and produced in a donkey to prevent the possible cross-reactivity when several tests were performed.
The cells treated for 6 hours with indazole compounds were collected and placed on a slide. Immunofluorescence staining was performed as described previously by Vielhaber et al. 2001 (Glycobiology. 2001, 11:451-7) using anti-ceramide as the primary antibody. The ceramide antibody was obtained from Sigma-Aldrich, and the Alexa-488-conjugated secondary antibody was obtained from Abcam. As a control condition, the cells were treated with DMSO (<0.15%) in RPMI 1640 medium from Gibco (Gaithersburg, Md.).

RPMI8226 = test: MTT cell viability assay, myeloma cell line RPMI; assay type: cell-based, human; settings: RPMI, MTT, 18 hours, doses 0-50 μM; read-out: IC50, cell viability
Procedure: In vitro studies were carried out using six different human MM cell lines, U266, RPMI8226, MM1S, MM1R, U266-LR7, and RPMI-LR5. For ex vivo assays, human primary cells from healthy donors and MM patients were used (Table 1). Human MM cell lines U266, RPMI8226, and MM1.S were acquired from ATCC and lines U266-LR7, RPMI-LR5, and MM1.R were kindly provided by Dr. Enrique Ocio (Hospital Universitario de Salamanca, Spain). The primary cells were obtained from bone marrow (BM) aspirates or peripheral blood (PB) samples, and the peripheral blood mononuclear cells (PBMCs) were isolated by Ficoll-Hypaque centrifugation and washed twice in phosphate buffered saline (PBS) containing 1% BSA. Hematopoietic stem cells and B and T lymphocytes were isolated from healthy PB donors by positive immunomagnetic separation using human MACS CD34+, CD19+, and CD3+ microbeads, respectively. MM plasma cells were obtained from the bone marrow (BM) of patients with an infiltration of cells of more than 30% (Table 1). The MM plasma cells were identified using CD138+, and were then distinguished from the other cell populations by flow cytometry using a suitable combination of antibodies: anti-human CD64-FITC, CD34-PE, CD56-APC, CD38-APC-H7, and CD45-Pacific Blue antibodies (BD Biosciences, San Jose, Calif.). All the cell lines were cultured in RPMI-1640 supplemented with 10% fetal bovine serum (FBS) and 1% penicillin/streptomycin, as recommended by the supplier. For human primary cells, the concentration of FBS was up to 20%.
The MM cell lines and primary cells were exposed to different doses of indazole compounds, and viability was evaluated at 18, 48, and 72 hours. Pretreatments with the ceramide synthesis inhibitor (FB1), pan-caspase (ZVAD-FMK), and CB antagonists (PGN-8, PGN-37, and PGN-70) were performed for 30 minutes, and then the cells were incubated with indazole compound WIN-55 up to 18 hours. Cell viability was determined using the MTT assay Cell Counting Kit-8 (Dojindo, Kumamoto, Japan) according to the manufacturer's instructions.

U266 [4] = test: Mitochondrial transmembrane potential analysis (TMRE); assay type: cell-based, human; settings: U266, 50 μM, from 15 minutes
Procedure: Cell lines U266 were exposed to 50 μM of WIN-55 for 15, 30, 45, and 60 minutes. The loss of mitochondrial membrane potential (Aym) was calculated using TRME (tetramethylrhodamine-ethyl-ester-perchlorate) according to the manufacturer's instructions and CCCP (2-[2-(3-chlorophenyl)hydrazinylidene] propanedinitrile) was used as a control to induce the loss of Aym.

HL60 cells = test: Murine model of AML (HL60 in NSG mice); assay type: in vivo; settings: 5 mg/kg/day
From the text: The NOD/scid/IL-2R gammae null (NSG) mice were acquired from Charles River Laboratories International (L'Arbresle, France) and received food and water ad libitum, under specific pathogen-free conditions. When the mice were 8-12 weeks old, AML was induced by intravenous inoculation of the HL60 cell line, and the mice were monitored to confirm progression of the disease by means of studying weight loss and detecting human CD45+ cells in bone marrow BM aspirates and flow cytometry analysis. Once the presence of leukemia cells was confirmed, treatment with a vehicle, WIN-55 212 cannabinoid was administered at a dose of 5 mg/kg/day or cytarabine (ARA-C) at 50 mg/kg for 5 days.

Compound: CS(=O)(=O)O.Cc1c(C(=O)c2cccc3ccccc23)c2cccc3c2n1[C@H](CN1CCOCC1)CO3 [WIN-55, (R)-(+)-[2,3-dihydro-5-methyl-3-(4-morpholinomethyl)-pyrrolo[1,2,3]-1,4-benzoxazin-6-yl]-1-naphthalenylmethanone mesylate]
- cell viability of normal cell subpopulations from patient bone marrow ([1]; granulomonocytes (CD64+) and lymphocytes (CD45+), 0-50 μM, 18 hours): barely affected
- effect on the lymphocyte population (CD45+) ([1]; highest dose tested, 50 μM): induced an antiproliferative effect
- viability of hematopoietic progenitor populations [2]: do not affect the viability
- caspase-3 activation (cleaved forms, Western blot) (U266 [3]): induction of caspase-3 activation
- expression of endoplasmic reticulum stress marker proteins CHOP, ATF-4, p-IRE1, XBP-1s (U266 [3]): slight but sustained decrease
- expression of ceramides (immunofluorescence) (U266 [3]; 6 hours): considerable increase in the expression of ceramides
- expression of p-Akt (phospho-T308) (U266 [3]; early points in time, decrease at later times): significant overexpression of p-Akt
- expression level of serine-palmitoyltransferase (SPT) (U266 [3]; maximum at 18 hours): increased
- IC50 (RPMI8226): 11.7 µM
- mitochondrial membrane potential (U266 [4]): early loss of mitochondrial membrane potential
- number of HL60 cells in bone marrow (HL60 cells): vast reduction
- survival (HL60 cells; versus control group and ARA-C group): significant increase in survival
